Reference: patent US7935823B2 (priority 2007, dated 2011)

Columns and labels:
5-HT6 Receptor = target: T1, 5-HT6 Receptor (Homo sapiens, UniProt P50406); assay: Binding with 5-HT6 receptor (radioligand binding); settings: compound concentration 10 uM; ligand 1.5 nM [3H]-LSD
T1 construct: expressed in transfected cells; host or cells: HeLa cells
Procedure: Binding with 5-HT6 Receptor.
The assay was conducted as follows [Monsma F. J., Jr, Shen Y., Ward R. P., Hamblin M. W., and Sibley D. R. Cloning and Expression of a novel serotonin receptor with high affinity for tricyclic psychotropic drugs. Mol. Pharmacol. 1993, 43: 320-327]: • Receptor source: human recombinant HeLa cells; • Ligand: 1.5 nM [3H]-lysergic acid diethylamide (LSD); • Vehicle: 1% DMSO; • Incubation time: 2 hours at 37 C; • Incubation buffer: 50 mM Tris-HCl, pH 7.4, 150 mM NaCl, 2 mM ascorbic acid, 0.001% BSA; • Compound concentration: 10 uM; • Non-specific ligand: 5 uM serotonin (5-HT); • Quantitation method: radioligand binding

[1] = target: butyrylcholine esterase (BuChE) (Homo sapiens, UniProt P06276); assay: Butyrylcholine esterase assay; assay type: biochemical; settings: compound concentration 10 uM; human serum enzyme; 560 uM S-butyrylthiocholine
Procedure: Butyrylcholine Esterase Assay.
The assay was conducted as follows [Ellman G. L., Courtney K. D., Andres Jr. V., and Featherstone R. N. A new and rapid colorimetric determination of acetylcholinesterase activity.

T1 sequence (P50406 whole entry): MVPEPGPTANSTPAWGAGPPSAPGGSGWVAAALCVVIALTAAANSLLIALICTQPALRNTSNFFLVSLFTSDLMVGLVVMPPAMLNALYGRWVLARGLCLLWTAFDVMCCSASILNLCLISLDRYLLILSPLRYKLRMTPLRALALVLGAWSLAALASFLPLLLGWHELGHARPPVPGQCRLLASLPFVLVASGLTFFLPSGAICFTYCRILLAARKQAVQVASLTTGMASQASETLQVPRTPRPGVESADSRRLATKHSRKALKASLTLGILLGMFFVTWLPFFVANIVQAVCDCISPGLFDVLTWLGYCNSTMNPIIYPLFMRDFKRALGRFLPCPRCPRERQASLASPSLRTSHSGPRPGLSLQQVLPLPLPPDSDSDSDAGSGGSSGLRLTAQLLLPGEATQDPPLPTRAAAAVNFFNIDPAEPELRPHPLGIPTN
Chain of butyrylcholine esterase (BuChE) (P06276 29-602): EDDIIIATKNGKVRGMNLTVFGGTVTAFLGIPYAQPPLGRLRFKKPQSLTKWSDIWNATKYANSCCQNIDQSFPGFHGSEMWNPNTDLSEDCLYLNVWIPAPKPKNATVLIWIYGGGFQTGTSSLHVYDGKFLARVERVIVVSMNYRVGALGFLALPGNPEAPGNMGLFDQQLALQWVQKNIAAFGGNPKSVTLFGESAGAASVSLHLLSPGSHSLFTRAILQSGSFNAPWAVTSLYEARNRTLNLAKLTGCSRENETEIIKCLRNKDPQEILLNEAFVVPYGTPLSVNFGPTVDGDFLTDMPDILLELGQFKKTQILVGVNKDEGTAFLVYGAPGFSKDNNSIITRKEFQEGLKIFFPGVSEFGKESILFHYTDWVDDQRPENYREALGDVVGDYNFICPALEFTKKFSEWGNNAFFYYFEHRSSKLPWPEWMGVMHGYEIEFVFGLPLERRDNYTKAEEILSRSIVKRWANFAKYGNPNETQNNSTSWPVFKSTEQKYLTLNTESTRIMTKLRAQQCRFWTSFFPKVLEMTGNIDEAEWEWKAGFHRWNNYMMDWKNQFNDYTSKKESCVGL

| Compound | inhibition at 10 µM (5-HT6 Receptor) [%] | inhibition at 10 µM [1] [%] |
| --- | --- | --- |
| CN1CCc2c(c3cc(F)ccc3n2CCc2ccc(C(F)(F)F)nc2)C1 [4-03] | 72 | 34 |
| CN1CCc2c(c3ccccc3n2CCc2ccc(C(F)(F)F)nc2)C1 [4-01] | 67 | 65 |
| CCN1CCc2c(c3cc(Cl)ccc3n2CCc2ccc(C(F)(F)F)nc2)C1 [4-08] | 77 | 100 |
| CN1CCc2c(c3cc(Cl)ccc3n2CCc2cncc(F)c2)C1 [compound 4] | 103 | 91 |
| CCN1CCc2c(c3cc(Cl)ccc3n2CCc2cncc(F)c2)C1 [compound 15] | 99 | 94 |
| CCN1CCc2c(c3cc(F)ccc3n2CCc2cncc(F)c2)C1 [compound 14] | 88 | 53 |
| COc1ccc2c(c1)c1c(n2CCc2cncc(F)c2)CCN(C)C1 [compound 6] | 96 | 99 |
| CN1CCc2c(c3ccccc3n2CCc2cncc(F)c2)C1 [compound 1] | 90 | 75 |
| CCN1CCc2c(c3cc(C)ccc3n2CCc2cncc(F)c2)C1 [compound 12] | 101 | 89 |
| CN1CCc2c(c3cc(Cl)ccc3n2CCc2ccc(C(F)(F)F)nc2)C1 [4-04] | 100 | 97 |
| CN1CCc2c(c3cc(OC(F)(F)F)ccc3n2CCc2cncc(F)c2)C1 [compound 10] | 95 | 100 |
| CCN1CCc2c(c3ccccc3n2CCc2cncc(F)c2)C1 [compound 11] | 77 | 66 |
| Cc1ccc2c(c1)c1c(n2CCc2cncc(F)c2)CCN(C)C1 [compound 2] | 102 | 87 |
| Cc1ccc2c(c1)c1c(n2CCc2ccc(C(F)(F)F)nc2)CCN(C)C1 [4-02] | 97 | 95 |
| CN1CCc2c(c3cc(F)cc(F)c3n2CCc2ccc(C(F)(F)F)nc2)C1 [4-07] | 79 | 20 |
| CN1CCc2c(c3cc(F)ccc3n2CCc2cncc(F)c2)C1 [compound 3] | 99 | 58 |
| CN1CCc2c(c3cc(C(F)(F)F)ccc3n2CCc2cncc(F)c2)C1 [compound 9] | 103 | 95 |
| COc1ccc2c(c1)c1c(n2CCc2ccc(C(F)(F)F)nc2)CCN(C)C1 [I. 4-06] | 72 | 99 |
